Data reported in patent US20150320696A1, “COMBINATION THERAPY FOR CANCER” (priority 2012, published 2015).

What was measured:
[1] = tested on: colorectal cancer cell line HT29; assay: MTT cytotoxic assay, HT29 cells; format: cell-based, Human
Method: (§1) The cytotoxic effects of terpinen-4-ol on cells were measured with the 3-[4,5-dimethylthiazol-2-yl]-2,5 diphenyltetrazolium (MTT) assay. Cells were seeded in 96-well plates (1×10^4 cells/well) in complete medium. After 12-16 hours of growth, different concentrations of each of the described agents were added to the cells in triplicates. 72 h later, the medium was replaced with fresh medium (100 μl per well) containing 1 mg/ml MTT and the cell were further incubated for 2 to 4 h. MTT-formazan crystals were dissolved by the addition of 100 μl extraction buffer. Absorbance at 570 nm and reference wavelength of 690 nm were recorded on an automated microplate reader. The relative number of viable cells compared to control cell line grown under the same condition, but without the added examined agent was determined.

[2] = tested on: DLD-1 colorectal cancer cell line xenograft; assay: Xenograft model of nude mice bearing DLD-1 colorectal cancer cell line; format: in vivo, athymic nude mice
Method: Male athymic nude mice, 6-8 weeks old, (Harlan Laboratories) were housed in sterile cages and handled with aseptic precautions. The mice were fed ad libitum. The therapeutic anti-cancer activity of terpinen-4-ol alone or in combination with additional anti-cancer agents was examined as follows: exponentially growing DLD1 cancer cells were harvested and resuspended at a final concentration of 5×10^6 cells per 0.2 ml PBS per injection. The cells were injected subcutaneously at two sites on the backs of the mice. When tumors were palpable, mice were randomly divided into the treatment groups as described hereinbelow.
At the 9th day after cell injection mice were randomly divided into treatment and control groups and the treatment was started by intra-tumor injection. The control group (5 mice) received 50 μl of a PBS solution with 1% DMSO; the treatment group (5 mice) received 50 μl of PBS solution with 1% DMSO containing 0.1% (v/v) terpinen-4-ol (1A).
Mice were treated every second day. The mice were weighed and tumor volume was measured every three days (with a caliper) starting from the onset of treatment with terpinen-4-ol/control. Tumor volume was calculated as 4/3π·a·b^2. At the end of the experiment, the mice were sacrificed by cervical dislocation after anesthesia and the tumors were excised and measured for volume and weight. Half of each tumor was preserved in −80° C. and the other half was preserved in 4% formaldehyde.
At the 11th day after cell implantation, mice were randomly divided into groups and the treatment started. The chemotherapeutic agent (cetuximub, referred to hereinafter by its trade name Erbitox®) was administered via intraperitoneal (i.p) injection 24 hours before administration of terpinen-4-ol. The terpinen-4-ol was administered directly into the tumor (intra-tumor injection).
Mice were treated every second day for 2 weeks. Mice were weighed and tumor volume was measured with a caliper before each additional treatment. Tumor volume was calculated as 4/3π·a·b^2.

[3] = tested on: drug (adriamicin)-resistant cell line (ADR); details: cell line expressing high levels of P-glycoprotein; Calcabrini A et al., 2004; cited from earlier work
[4] = tested on: colorectal cancer cell line DLD1; assay: MTT cytotoxic assay, DLD1 cells; format: cell-based
Method: as §1

cancer cell lines = assay: MTT cytotoxic assay, all cancer cell lines examined (general statements); format: cell-based; details: terpinen-4-ol at a concentration of 0.01%
Method: Human colon adenocarcinoma grade II cells, HT29; Human colon carcinoma cells, HCT116; Human colonic carcinoma cells, COLO 320; Human cell line of metastatic pancreatic adenocarcinoma, COLO 357; Human pancreatic carcinoma epithelial-like cell line, PANC-1; and Human pancreatic carcinoma cells, MIA-PACA were grown in high-glucose Dulbecco's modified Eagle's medium (DMEM) supplemented with 5% heat-inactivated (HI) fetal bovine serum (FBS), 1% Glutamine and streptomycin/penicillin.
(§2) Androgen-independent, highly anaplastic prostate cancer cell line with moderate metastatic potential, DU145; Aggressive androgen-independent anaplastic cell line, CL-1; and the colorectal adenocarcinoma DLD1 cells were grown in RPMI-1640 medium supplemented with 5% HI-FBS.
The cytotoxic effects of terpinen-4-ol on cells were measured with the 3-[4,5-dimethylthiazol-2-yl]-2,5 diphenyltetrazolium (MTT) assay. Cells were seeded in 96-well plates (1×10^4 cells/well) in complete medium. After 12-16 hours of growth, different concentrations of each of the described agents were added to the cells in triplicates. […] Absorbance at 570 nm and reference wavelength of 690 nm were recorded on an automated microplate reader. The relative number of viable cells compared to control cell line grown under the same condition, but without the added examined agent was determined.

[5] = tested on: prostate cancer cell line CL-1; assay: MTT cytotoxic assay, CL-1 cells; format: cell-based
Method: as §2, §1

[6] = tested on: murine AE17 mesothelioma tumor cell line; details: Greay S J et al., 2010; cited from earlier work
[7] = tested on: pancreatic cancer cell line COLO 357; assay: MTT cytotoxic assay, COLO 357 cells; format: cell-based, Human
Method: as §1, with “Human colon adenocarcinoma grade II cells, HT29; Human colon carcinoma cells, HCT116; Human colonic carcinoma cells, COLO 320; Human cell line” for “The cytotoxic effects”, “metastatic pancreatic adenocarcinoma, COLO 357; Human pancreatic carcinoma epithelial-like cell line, PANC-1; and Human pancreatic carcinoma cells, MIA-PACA” for “terpinen-4-ol on cells”, “grown in high-glucose Dulbecco's modified Eagle's medium (DMEM) supplemented” for “measured”, “5% heat-inactivated (HI) fetal bovine serum (FBS), 1% Glutamine and streptomycin/penicillin. […]” for “the 3-[4,5-dimethylthiazol-2-yl]-2,5 diphenyltetrazolium (MTT) assay.”

[8] = tested on: prostate cancer cell line DU145; assay: MTT cytotoxic assay, DU145 cells; format: cell-based, Human
Method: as §2, §1

[9] = tested on: pancreatic cancer cell line PANC-1; assay: MTT cytotoxic assay, PANC-1 cells; format: cell-based, Human
Method: as §1

[10] = tested on: pancreatic cancer cell line MIA-PACA; assay: MTT cytotoxic assay, MIA-PACA cells; format: cell-based, Human
Method: as §1

human M14 melanoma cells = details: Calcabrini A et al., 2004; cited from earlier work
[11] = tested on: murine B16 melanoma tumor cell line; details: Greay S J et al., 2010; cited from earlier work

**Q.** Which “concentration dependence of cytotoxic effect” value (from here on “concentration dependence”) ([1]; 0.005%, 0.01%, 0.02% and 0.10% (v/v), FIG. 2B) does the source give for `CC1=CCC(O)(C(C)C)CC1` (stereo not drawn) [terpinen-4-ol, 4-methyl-1-(1-methylethyl)-3-cyclohexen-1-ol] here?
**A.** concentration dependent

**Q.** What about the “dependence of cytotoxic activity on DMSO” value ([1]; 0.01% DMSO added to medium containing 0.01%, 0.05% or 0.10% terpinen-4-ol, FIG. 1B) of the same compound?
**A.** does not depend on the presence of DMSO

**Q.** And the “cytotoxic activity in the presence of DMSO compared to without” value ([1]; 0.01% DMSO, FIG. 1B)?
**A.** lower activity

**Q.** And the “volume of the implanted tumor” value ([2]; Example 5, intra-tumor injection of 50 μl 0.1% terpinen-4-ol (about 1.65 mg/Kg per injection) every second day, vs control, FIG. 5A)?
**A.** significantly reduced

**Q.** And the “weight of the implanted tumor” value ([2]; Example 5, intra-tumor injection of 50 μl 0.1% terpinen-4-ol (about 1.65 mg/Kg per injection) every second day, vs control, end of assay, FIG. 5B)?
**A.** significantly reduced

**Q.** And the “effect on the tumor growth” value ([2]; Example 6, 0.1% terpinen-4-ol intra-tumor, after two weeks of treatment)?
**A.** only minor effect

**Q.** And the “reduction of tumor size compared to control” value ([2]; Example 6, 50 μl 0.1% terpinen-4-ol intra-tumor every second day, after two weeks of treatment, FIG. 6)?
**A.** about 3.7%

**Q.** What about the “effectiveness relative to parental M14 cells” value [3] of the same compound?
**A.** more effective

**Q.** And the “concentration dependence” value ([4]; 0.005%, 0.01%, 0.02% and 0.10% (v/v), FIG. 2A)?
**A.** concentration dependent

**Q.** And the “dependence of cytotoxic activity on DMSO” value ([4]; 0.01% DMSO added to medium containing 0.01%, 0.05% or 0.10% terpinen-4-ol, FIG. 1A)?
**A.** does not depend on the presence of DMSO

**Q.** What about the cytotoxic effectiveness (cancer cell lines) of the same compound?
**A.** moderately effective

**Q.** And the “concentration dependence” value ([5]; 0.005%, 0.01%, 0.02% and 0.10% (v/v), FIG. 2D)?
**A.** concentration dependent

**Q.** And the “dependence of cytotoxic activity on DMSO” value ([5]; 0.01% DMSO added to medium containing 0.01%, 0.05% or 0.10% terpinen-4-ol, FIG. 1G)?
**A.** does not depend on the presence of DMSO

**Q.** And the anti-proliferative effect [6]?
**A.** significant anti-proliferative effects

**Q.** What about the “concentration dependence” value ([7]; 0.005%, 0.01%, 0.02% and 0.10% (v/v), FIG. 2G) of the same compound?
**A.** concentration dependent

**Q.** What about the “dependence of cytotoxic activity on DMSO” value ([7]; 0.01% DMSO added to medium containing 0.01%, 0.05% or 0.10% terpinen-4-ol, FIG. 1E) of the same compound?
**A.** does not depend on the presence of DMSO

**Q.** And the “concentration dependence” value ([8]; 0.005%, 0.01%, 0.02% and 0.10% (v/v), FIG. 2C)?
**A.** concentration dependent

**Q.** And the “dependence of cytotoxic activity on DMSO” value ([8]; 0.01% DMSO added to medium containing 0.01%, 0.05% or 0.10% terpinen-4-ol, FIG. 1F)?
**A.** does not depend on the presence of DMSO

**Q.** What about the “concentration dependence” value ([9]; 0.005%, 0.01%, 0.02% and 0.10% (v/v), FIG. 2F) of the same compound?
**A.** concentration dependent

**Q.** What about the “dependence of cytotoxic activity on DMSO” value ([9]; 0.01% DMSO added to medium containing 0.01%, 0.05% or 0.10% terpinen-4-ol, FIG. 1C) of the same compound?
**A.** does not depend on the presence of DMSO

**Q.** What about the “concentration dependence” value ([10]; 0.005%, 0.01%, 0.02% and 0.10% (v/v), FIG. 2E) of the same compound?
**A.** concentration dependent

**Q.** What about the “dependence of cytotoxic activity on DMSO” value ([10]; 0.01% DMSO added to medium containing 0.01%, 0.05% or 0.10% terpinen-4-ol, FIG. 1D) of the same compound?
**A.** does not depend on the presence of DMSO

**Q.** And the “effect on cell growth” value (human M14 melanoma cells)?
**A.** impair the growth

**Q.** What about the anti-proliferative effect [11] of the same compound?
**A.** significant anti-proliferative effects
